One experiment concerns the target Acetylcholinesterase (Homo sapiens, UniProt P22303).
For a further experiment, the target named is Cholinesterase (Homo sapiens, UniProt P06276).
The test system of the next experiment is N2a. The experiment is described as follows: Cytotoxicity against mouse N2a cells incubated for 48 hrs by MTT assay. The class given is cell-based. For orientation: Tetrazolium assays rely on reduction of a dye to a coloured formazan, in cell work by metabolically active cells.
Experiment [1] can be described thus: Cytotoxicity against porcine fetal kidney cells incubated for 48 hrs by MTT assay. The class given is cell-based. To be noted: Sus scrofa, Fetal kidney cell.
Experiment [2] is described as follows: Cytotoxicity against goat fetal fibroblast cells incubated for 48 hrs by MTT assay. The class given is cell-based, Fetal fibroblast cell. To be noted: Capra hircus.

pIC50: −log10 of the molar value.

Acetylcholinesterase, sequence (P22303 whole entry): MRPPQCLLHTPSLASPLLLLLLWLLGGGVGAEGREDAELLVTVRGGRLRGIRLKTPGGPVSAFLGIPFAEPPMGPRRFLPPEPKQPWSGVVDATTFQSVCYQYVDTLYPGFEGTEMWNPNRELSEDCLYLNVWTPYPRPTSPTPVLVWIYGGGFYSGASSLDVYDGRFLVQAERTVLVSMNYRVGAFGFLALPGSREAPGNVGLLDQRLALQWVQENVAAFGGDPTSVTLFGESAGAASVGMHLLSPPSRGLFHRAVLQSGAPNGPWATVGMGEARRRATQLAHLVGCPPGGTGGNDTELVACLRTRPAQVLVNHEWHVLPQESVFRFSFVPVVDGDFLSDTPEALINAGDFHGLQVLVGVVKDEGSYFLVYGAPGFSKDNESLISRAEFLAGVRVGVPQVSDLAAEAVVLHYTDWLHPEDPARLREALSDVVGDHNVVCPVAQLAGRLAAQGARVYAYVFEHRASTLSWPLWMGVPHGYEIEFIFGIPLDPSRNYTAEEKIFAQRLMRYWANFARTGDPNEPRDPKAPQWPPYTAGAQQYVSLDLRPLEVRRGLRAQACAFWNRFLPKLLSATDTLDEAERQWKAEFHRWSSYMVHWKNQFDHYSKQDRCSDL
Cholinesterase, sequence (P06276 whole entry): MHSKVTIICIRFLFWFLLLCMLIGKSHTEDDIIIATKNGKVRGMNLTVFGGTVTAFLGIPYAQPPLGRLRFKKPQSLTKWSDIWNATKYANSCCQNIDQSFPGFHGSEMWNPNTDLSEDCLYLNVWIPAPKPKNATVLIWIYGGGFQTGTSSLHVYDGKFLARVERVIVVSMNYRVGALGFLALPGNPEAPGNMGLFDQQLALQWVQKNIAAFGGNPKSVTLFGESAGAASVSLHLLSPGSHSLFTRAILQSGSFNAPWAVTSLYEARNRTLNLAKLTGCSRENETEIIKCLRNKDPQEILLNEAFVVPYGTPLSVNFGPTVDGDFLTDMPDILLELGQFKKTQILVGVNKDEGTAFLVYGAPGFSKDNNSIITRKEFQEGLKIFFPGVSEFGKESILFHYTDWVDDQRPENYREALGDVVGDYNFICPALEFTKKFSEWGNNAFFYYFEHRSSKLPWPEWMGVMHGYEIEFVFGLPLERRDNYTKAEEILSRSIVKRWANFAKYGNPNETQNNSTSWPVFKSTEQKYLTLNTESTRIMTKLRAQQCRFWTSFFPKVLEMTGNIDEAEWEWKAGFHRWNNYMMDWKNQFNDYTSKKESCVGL
Description for Acetylcholinesterase: Inhibition of AChE (unknown origin) preincubated for 30 mins followed by substrate addition acetylthiocholineiodide measured after 40 mins by Ellman's method

The pIC50 is −log10 of the IC50, conventionally taken in molar units. A lower pIC50 goes with a large IC50. For the compound `COc1cccc2c1C=[N+](c1ccccc1Br)CC2`, the pIC50 against Acetylcholinesterase was 5.82; against Cholinesterase it was 4.57.
`COc1cccc2c1C=[N+](c1ccccc1C#N)CC2` had a pIC50 at Acetylcholinesterase of less than 5.00.
For `COc1cccc2c1C=[N+](c1ccc(F)cc1)CC2`, the negative-log IC50 (pIC50) against Acetylcholinesterase was 5.70; against Cholinesterase, 3.95.
In turn, `COc1cccc2c1C=[N+](c1cccc(F)c1)CC2` had a pIC50 on Acetylcholinesterase of less than 5.00.
As for `COc1cccc2c1C=[N+](c1cccc(I)c1)CC2`, the pIC50 against Acetylcholinesterase was less than 5.00.
In the case of `COc1cccc2c1C=[N+](c1ccccc1C)CC2`, the pIC50 on Acetylcholinesterase is 5.51; on Cholinesterase, 3.88.
Take `COc1cccc2c1C=[N+](c1cccc(Cl)c1)CC2`: the pIC50 at Acetylcholinesterase is less than 5.00.
`COc1cccc2c1C=[N+](c1ccc(I)cc1F)CC2`: the pIC50 was 5.97 at Acetylcholinesterase and 3.89 against Cholinesterase.
On Acetylcholinesterase, `COc1cccc2c1C=[N+](c1ccc(C#N)cc1)CC2` gave a pIC50 of less than 5.00.
Turning to `COc1cccc([N+]2=Cc3c(cccc3OC)CC2)c1`, the pIC50 was 5.28 on Acetylcholinesterase and 4.11 against Cholinesterase.
On to `COc1cccc2c1C=[N+](c1ccccc1C(F)(F)F)CC2`, for which, on Acetylcholinesterase, the pIC50 was less than 5.00.
In the case of `COc1cccc2c1C=[N+](c1ccc(Cl)cc1)CC2`, the pIC50 was 6.49 against Acetylcholinesterase and 4.21 against Cholinesterase.
For `COc1cccc2c1C=[N+](c1ccc(C(F)(F)F)cc1)CC2`, in that order: 5.71 and 3.66.
Consider `COc1cccc2c1C=[N+](c1cccc(Br)c1)CC2`, for which the pIC50 on Acetylcholinesterase was less than 5.00.
Take `COc1cccc2c1C=[N+](c1cccc(C#N)c1)CC2`: the pIC50 against Acetylcholinesterase is 5.29; on Cholinesterase, 3.96.
Regarding `COc1cccc2c1C=[N+](c1ccc(Cl)cc1Cl)CC2`, the negative logarithm of the IC50 (pIC50) was 5.98 at Acetylcholinesterase and 4.04 at Cholinesterase.
Consider `COc1ccc([N+]2=Cc3c(cccc3OC)CC2)cc1`, for which the pIC50 was 4.58 with N2a; 4.62 in experiment [1]; 4.56 in experiment [2]; 5.98 against Acetylcholinesterase; 3.95 against Cholinesterase.
For `COc1cccc2c1C=[N+](c1ccccc1I)CC2`, the pIC50 against Acetylcholinesterase is 5.75; on Cholinesterase, 4.54.
For `COc1cccc2c1C=[N+](c1ccc(I)cc1)CC2`, in that order: 6.00 and 4.24.
The corresponding values for `COc1cccc2c1C=[N+](c1ccccc1F)CC2` are 5.53 and 4.12.
Turning to `COc1cccc2c1C=[N+](c1cccc(C(F)(F)F)c1)CC2`, the pIC50 against Acetylcholinesterase was less than 5.00.
For `COc1cccc2c1C=[N+](c1cc(Cl)cc(Cl)c1)CC2`, on Acetylcholinesterase, the pIC50 is less than 5.00.
Take `COc1cccc2c1C=[N+](c1ccc(C)cc1)CC2`: the negative logarithm of the IC50 (pIC50) at Acetylcholinesterase was 6.28; at Cholinesterase it was 4.33.
Regarding `COc1cccc2c1C=[N+](c1ccccc1)CC2`, the pIC50 against Acetylcholinesterase is 5.79; on Cholinesterase it was 4.45.
As for `COc1cccc2c1C=[N+](c1ccccc1Cl)CC2`, the figures for the pIC50 at Acetylcholinesterase and against Cholinesterase were less than 5.00 and 3.72, respectively.
For `COc1cccc2c1C=[N+](c1cccc(C)c1)CC2`, in that order: 5.54 and 4.44.
For `COc1cccc2c1C=[N+](c1ccc(Br)cc1F)CC2`, in that order: 5.89 and 4.16.
For `COc1cccc2c1C=[N+](c1c(F)cccc1F)CC2`, in that order: 5.89 and 3.98.
Consider `COc1cccc2c1C=[N+](c1ccc(Br)cc1Br)CC2`, for which the pIC50 with N2a is 5.37; in experiment [1], 5.22; in experiment [2], 5.21; at Acetylcholinesterase, 5.43; against Cholinesterase it was 3.94.
For `COc1cccc2c1C=[N+](c1ccc(Br)cc1)CC2`, in that order: 4.69, 4.72, 4.69, 6.55 and 4.68.
As to `COc1ccccc1[N+]1=Cc2c(cccc2OC)CC1`, the pIC50 against Acetylcholinesterase is less than 5.00.
Take `C[n+]1cc2c3c(ccc2c2ccc4cc5c(cc4c21)OCO5)OCO3`: the pIC50 was 5.91 against Acetylcholinesterase and 5.15 against Cholinesterase.
As for `COc1cccc2cc[n+](-c3ccccc3F)cc12`, the figures for the pIC50 on Acetylcholinesterase and against Cholinesterase were 5.59 and 4.09, respectively.
Regarding `COc1cccc2cc[n+](-c3ccc(Br)cc3F)cc12`, the pIC50 was 6.05 against Acetylcholinesterase and 3.71 at Cholinesterase.
For `COc1cccc2cc[n+](-c3ccccc3I)cc12`, in that order: 5.69 and 4.43.
The corresponding values for `Brc1ccc([N+]2=Cc3ccccc3CC2)cc1` are 4.98 and 4.20.
`COc1cccc2cc[n+](-c3ccc(Cl)cc3)cc12`: the negative-log IC50 (pIC50) against Acetylcholinesterase is 6.77; against Cholinesterase it was 3.98.
For the compound `COc1cccc2cc[n+](-c3ccccc3C(F)(F)F)cc12`, the pIC50 on Acetylcholinesterase is less than 5.00.
`COc1cccc2cc[n+](-c3cccc(I)c3)cc12`: the pIC50 against Acetylcholinesterase is less than 5.00.
`COc1cccc2cc[n+](-c3cccc(C)c3)cc12`: the figures for the pIC50 against Acetylcholinesterase and on Cholinesterase were 5.66 and 4.51, respectively.
For `COc1cccc(-[n+]2ccc3cccc(OC)c3c2)c1`, the pIC50 was 5.16 on Acetylcholinesterase and 4.01 at Cholinesterase.
The corresponding values for `COc1cccc2cc[n+](-c3cccc(C#N)c3)cc12` are 5.47 and less than 3.60.
At Acetylcholinesterase, `COc1ccccc1-[n+]1ccc2cccc(OC)c2c1` gave a pIC50 of less than 5.00.
On to `COc1cccc2cc[n+](-c3ccccc3C#N)cc12`, for which the pIC50 was 5.76 on Acetylcholinesterase and 4.23 at Cholinesterase.
For `COc1cccc2cc[n+](-c3ccc(Cl)cc3Cl)cc12`, in that order: 5.47 and 3.63.
As for `COc1cccc2cc[n+](-c3ccccc3Cl)cc12`, the pIC50 on Acetylcholinesterase is 5.27; against Cholinesterase it was 4.17.
Take `COc1cccc2cc[n+](-c3c(F)cccc3F)cc12`: the results for the pIC50 on Acetylcholinesterase and at Cholinesterase were 5.57 and 4.32, respectively.
Turning to `COc1cccc2cc[n+](-c3cccc(Cl)c3)cc12`, the negative-log IC50 (pIC50) against Acetylcholinesterase was 5.02; at Cholinesterase, 4.44.
In the case of `COc1cccc2cc[n+](-c3ccc(Br)cc3)cc12`, the negative-log IC50 (pIC50) with N2a is 4.68; in experiment [1], 4.70; in experiment [2] it was less than 4.30; against Acetylcholinesterase it was 6.72; against Cholinesterase, 4.67.
Turning to `COc1cccc2cc[n+](-c3ccccc3)cc12`, the results for the negative-log IC50 (pIC50) against Acetylcholinesterase and on Cholinesterase were 5.85 and 4.10, respectively.
Regarding `COc1cccc2cc[n+](-c3ccc(Br)cc3Br)cc12`, the pIC50 is less than 4.30 in the experiment with N2a; less than 4.30 in experiment [1]; less than 4.30 in experiment [2]; 6.24 against Acetylcholinesterase; 3.88 against Cholinesterase.
`COc1cccc2cc[n+](-c3ccc(I)cc3F)cc12`: the results for the pIC50 at Acetylcholinesterase and at Cholinesterase were 5.91 and 4.05, respectively.
`COc1cccc2cc[n+](-c3cccc(Br)c3)cc12` had a pIC50 against Acetylcholinesterase of less than 5.00.
`COc1cccc2cc[n+](-c3ccc(I)cc3)cc12`: the pIC50 was 6.14 at Acetylcholinesterase and 4.44 against Cholinesterase.
For the compound `COc1cccc2cc[n+](-c3cccc(F)c3)cc12`, the pIC50 on Acetylcholinesterase is 5.04; against Cholinesterase, less than 3.60.
Regarding `COc1cccc2cc[n+](-c3ccc(C#N)cc3)cc12`, the pIC50 at Acetylcholinesterase is less than 5.00.
For `COc1cccc2cc[n+](-c3ccccc3Br)cc12`, the figures for the pIC50 against Acetylcholinesterase and against Cholinesterase were 5.28 and 4.05, respectively.
As for `Brc1ccc(-[n+]2ccc3ccccc3c2)cc1`, the pIC50 against Acetylcholinesterase was 5.62; on Cholinesterase, 3.89.
With `COc1cccc2cc[n+](-c3ccc(F)cc3)cc12`, the pIC50 was 6.17 against Acetylcholinesterase and 3.84 on Cholinesterase.
For the compound `COc1cccc2cc[n+](-c3cccc(C(F)(F)F)c3)cc12`, at Acetylcholinesterase, the pIC50 is less than 5.00.
For `COc1ccc(-[n+]2ccc3cccc(OC)c3c2)cc1`, the pIC50 in the experiment with N2a was less than 4.30; in experiment [1], less than 4.30; in experiment [2] it was less than 4.30; on Acetylcholinesterase, 6.85; against Cholinesterase, 5.42.
Take `COc1cccc2cc[n+](-c3cc(Cl)cc(Cl)c3)cc12`: at Acetylcholinesterase, the pIC50 was less than 5.00.
Regarding `COc1cccc2cc[n+](-c3ccccc3C)cc12`, the pIC50 is 5.54 against Acetylcholinesterase and 3.61 at Cholinesterase.
For `COc1cccc2cc[n+](-c3ccc(C(F)(F)F)cc3)cc12`, in that order: 6.16 and 4.47.
On to `COc1cccc2cc[n+](-c3ccc(C)cc3)cc12`, for which the figures for the pIC50 against Acetylcholinesterase and against Cholinesterase were 5.97 and less than 3.60, respectively.
For `COc1ccc2c(c[n+](C)c3c4cc5c(cc4ccc23)OCO5)c1OC` [CHELERYTHRINE], in that order: 5.84 and 5.07.
